Source: patent US20020183383A1, “Pharmaceutical compositions” (priority 2001, published 2002)

What was measured:
[1] = tested on: subjects with primary hypercholesterolemia; experiment: Multicenter, double-blind, placebo-controlled, parallel study of lipid (LDL-C, TC, HDL-C, TG) lowering efficacy of once-daily pravastatin 40-160 mg; assay type: in vivo, human; settings: for HDL-C % Δ, adjusted percent change from baseline (ANCOVA) / LDL-C (calculated) % Δ, adjusted percent change from baseline (ANCOVA) / TC % Δ, adjusted percent change from baseline (ANCOVA) / TG % Δ, adjusted percent change from baseline (ANCOVA) / increase in HDL-C / mean reduction in TC / mean reduction in TG: Week 6; for mean reduction in LDL-C: 6 weeks of treatment
Method: A Multicenter, Double-Blind, Placebo-Controlled, Parallel Study to Determine the LDL-C Lowering Efficacy of Pravastatin Administered Once Daily Over the Dosage Range of 40 mg Through 160 mg.
(§1) Objectives: The primary objective of this study was to evaluate the dose-related cholesterol (LDL-C) lowering efficacy of pravastatin 40 mg, 80 mg and 160 mg after 6 weeks of once-daily oral administration in subjects with primary hypercholesterolemia. Secondary objectives were: 1) to evaluate the dose-related changes in serum total cholesterol (TC), high-density lipoprotein cholesterol (HDL-C), and triglycerides (TG) concentrations after 6 weeks of once-daily oral administration of pravastatin 40 mg, 80 mg and 160 mg in subjects with primary hypercholesterolemia; 2) to estimate the dose-related changes in serum LDL-C, TC, HDL-C, and TG concentrations after 2 weeks and 4 weeks of once-daily oral administration of pravastatin 40 mg, 80 mg and 160 mg in subjects with primary hypercholesterolemia; and 3) to ascertain the safety and tolerability of the treatment regimens after 6 weeks of once-daily oral administration of pravastatin 40 mg, 80 mg and 160 mg in subjects with primary hypercholesterolemia.
Duration of Treatment: 6 weeks
(§2) Study Design and Methodology: This study was a multicenter, randomized, double-blind placebo-controlled, parallel design trial to determine the LDL-C lowering efficacy of pravastatin over a dose range of 40-160 mg in subjects with primary hypercholesterolemia. After at least 2 weeks of dietary stabilization and discontinuation of any previous lipid-lowering agents for a minimum of 4 weeks, subjects entered into a 4-week single-blind placebo lead-in period. At the end of the placebo lead-in period, subjects with mean serum LDL-C≧160 mg/dL and mean serum TG≦500 mg/dL were randomized (1:1:1:1) to one of four treatment groups: pravastatin 40 mg, pravastatin 80 mg, pravastatin 160 mg or placebo. Blinded treatment was administered once-daily at bedtime for 6 weeks.
Number of Subjects: 190 randomized; 189 received randomized study drug, 184 completed the study.
Diagnosis and Main Criteria for Inclusion: Consenting men, or postmenopausal and surgically sterile women, aged 18 through 65 years were eligible to enroll in the study if they met the following criteria: 1) mean serum LDL-C≧160 mg/dL (the LDL-C concentration of the lower qualifying specimen were to be within 15% of the higher qualifying specimen) and 2) mean serum TG≦500 mg/dL obtained from two consecutive qualifying specimens.
Test Product, dose, mode of administration: pravastatin, 40 mg tablets, oral
Primary Efficacy Outcome Measure:
Change from baseline in calculated serum LDL-C at Week 6 of double-blind treatment.
Secondary Efficacy Outcome Measures:
Change from baseline in serum LDL-C at Weeks 2 and 4 of double blind treatment.
Change from baseline in serum TC, HDL-C, and TG at Weeks 2,4, and 6 of double-blind treatment.
Analyses of covariance with terms for treatment and baseline.
A contrast of the dose groups from the analysis of covariance model.

[2] = tested on: subjects with primary hypercholesterolemia; experiment: Safety and tolerability in the same 6-week clinical study (adverse events, laboratory analyses); assay type: in vivo, human
Method: as §1, §2
Medical history, physical examinations, laboratory analyses, and clinical adverse events (AEs).

[3] = pravastatin 40 mg once daily, Week 6, N=45
[4] = pravastatin 80 mg once daily, Week 6, N=48
[5] = pravastatin 160 mg once daily, Week 6, N=48
[6] = pravastatin 40 mg once daily, 6 weeks, N=46
[7] = pravastatin 80 mg once daily, 6 weeks, N=49
[8] = pravastatin 160 mg once daily, 6 weeks, N=48

## CC[C@H](C)C(=O)O[C@H]1C[C@H](O)C=C2C=C[C@H](C)[C@H](CC[C@@H](O)C[C@@H](O)CC(=O)O)[C@H]21 [Pravastatin, Pravastatin sodium]
[1]; dose doubled from 40 mg to 80 mg, and again from 80 mg to 160 mg
  absolute reduction in LDL cholesterol as the dose was doubled: greater than 6%
[1]; doses of 40-160 mg once daily, 6 weeks
  additional LDL-C lowering with every doubling of the dose: 8%
[1]; pravastatin 40 mg once daily oral at bedtime, Week 6, N=45
  LDL-C (calculated) Week 6 Mean: 139.0 mg/dL
[1]; pravastatin 40 mg once daily
  HDL-C % Δ, adjusted percent change from baseline (ANCOVA): 11.4%
  LDL-C (calculated) % Δ, adjusted percent change from baseline (ANCOVA): −28.6%
  TC % Δ, adjusted percent change from baseline (ANCOVA): −20.0%
  TG % Δ, adjusted percent change from baseline (ANCOVA): −15.8%
[1]; [3]
  HDL-C Week 6 Mean: 52.8 mg/dL
  TC Week 6 Mean: 219.8 mg/dL
  TG Week 6 Mean: 140.9 mg/dL
[1]; pravastatin 40 mg
  mean reduction in LDL-C: 29%
  increase in HDL-C: 11.4%
  mean reduction in TC: 20%
  mean reduction in TG: 16%
[1]; pravastatin 80 mg once daily oral at bedtime, Week 6, N=48
  LDL-C (calculated) Week 6 Mean: 124.7 mg/dL
[1]; pravastatin 80 mg once daily
  HDL-C % Δ, adjusted percent change from baseline (ANCOVA): 8.4%
  LDL-C (calculated) % Δ, adjusted percent change from baseline (ANCOVA): −36.7%
  TC % Δ, adjusted percent change from baseline (ANCOVA): −26.3%
  TG % Δ, adjusted percent change from baseline (ANCOVA): −14.2%
[1]; [4]
  HDL-C Week 6 Mean: 45.0 mg/dL
  TC Week 6 Mean: 201.6 mg/dL
  TG Week 6 Mean: 158.8 mg/dL
[1]; pravastatin 80 mg
  mean reduction in LDL-C: 37%
  increase in HDL-C: 8.4%
  mean reduction in TC: 26%
  mean reduction in TG: 14%
[1]; pravastatin 160 mg once daily oral at bedtime, Week 6, N=47
  LDL-C (calculated) Week 6 Mean: 108.4 mg/dL
[1]; pravastatin 160 mg once daily
  HDL-C % Δ, adjusted percent change from baseline (ANCOVA): 9.6%
  LDL-C (calculated) % Δ, adjusted percent change from baseline (ANCOVA): −45.2%
  TC % Δ, adjusted percent change from baseline (ANCOVA): −34.2%
  TG % Δ, adjusted percent change from baseline (ANCOVA): −26.9%
[1]; [5]
  HDL-C Week 6 Mean: 46.4 mg/dL
  TC Week 6 Mean: 181.3 mg/dL
  TG Week 6 Mean: 132.0 mg/dL
[1]; pravastatin 160 mg
  mean reduction in LDL-C: 45%
  increase in HDL-C: 9.6%
  mean reduction in TC: 34%
  mean reduction in TG: 27%
[2]; 40 mg pravastatin (one subject)
  subjects with CK elevation >4×ULN: 2.2%
[2]; 160 mg pravastatin treatment group (two subjects)
  subjects discontinued due to gastrointestinal events considered possibly related to study drug: 1.4%
[2]; 40, 80 and 160 mg once daily for 6 weeks
  tolerability / safety in words: appears safe and well tolerated
[2]; all treatment groups, 6 weeks
  deaths or serious adverse events in the study: no deaths or serious adverse events
  marked abnormalities (MAs) for ALT and AST: No marked abnormalities
[2]; [6]
  Number of randomized subjects with ADE (adverse drug experience), n (%): 5 (10.9%)
  Number of randomized subjects with AE (total), n (%): 19 (43%)
  Number of randomized subjects with Discontinuations, n (%): 0
  Number of randomized subjects with SAE (serious adverse event): 0
[2]; [7]
  Number of randomized subjects with ADE (adverse drug experience), n (%): 14 (28.6%)
  Number of randomized subjects with AE (total), n (%): 24 (49.0%)
  Number of randomized subjects with Discontinuations, n (%): 0
  Number of randomized subjects with SAE (serious adverse event): 0
[2]; pravastatin 160 mg dose
  frequency of adverse events by body system: higher frequency of adverse events in the gastrointestinal and respiratory body systems
[2]; [8]
  Number of randomized subjects with ADE (adverse drug experience), n (%): 17 (35.4%)
  Number of randomized subjects with AE (total), n (%): 29 (60.4%)
  Number of randomized subjects with Discontinuations, n (%): 2 (1.4%)
  Number of randomized subjects with SAE (serious adverse event): 0
